Assay results published in patent US12479827B2, “Heteroaromatic carboxamide derivatives as plasma kallikrein inhibitors” (Boehringer Ingelheim International GmbH, priority 2020, dated 2025).

Tests used:
[1] = target: T1, PKK in kaolin activated human platelet poor plasma (Homo sapiens, UniProt P03952); test: Inhibition of PKK in kaolin activated human PPP; format: biochemical; settings: 25-750 μg/mL kaolin, global fit, text b200 calls the values IC90;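 note: readout is the rate of fluorogenic substrate cleavage in rfu per min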
T1 construct: Platelet poor plasma (PPP) obtained from human wholeblood; from tissue
T1 sequence (P03952 391-638 limits assumed): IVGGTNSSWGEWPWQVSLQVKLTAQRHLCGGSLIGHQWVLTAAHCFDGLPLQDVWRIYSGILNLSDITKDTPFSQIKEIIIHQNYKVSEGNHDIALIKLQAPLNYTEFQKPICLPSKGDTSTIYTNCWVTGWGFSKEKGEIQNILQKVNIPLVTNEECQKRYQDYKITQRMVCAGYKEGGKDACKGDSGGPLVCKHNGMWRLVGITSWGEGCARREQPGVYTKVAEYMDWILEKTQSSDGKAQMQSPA
T1 sequence (P03952 20-390 limits assumed): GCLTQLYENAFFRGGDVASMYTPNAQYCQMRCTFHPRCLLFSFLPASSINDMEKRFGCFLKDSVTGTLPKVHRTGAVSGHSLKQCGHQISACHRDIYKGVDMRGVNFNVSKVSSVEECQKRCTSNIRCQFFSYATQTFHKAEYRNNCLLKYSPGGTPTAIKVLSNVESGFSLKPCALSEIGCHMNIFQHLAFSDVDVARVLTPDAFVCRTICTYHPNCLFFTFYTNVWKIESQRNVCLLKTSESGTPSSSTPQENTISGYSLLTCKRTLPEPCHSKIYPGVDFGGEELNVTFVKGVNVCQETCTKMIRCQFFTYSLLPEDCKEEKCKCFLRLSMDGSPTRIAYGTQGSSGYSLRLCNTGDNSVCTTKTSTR
Experimental: Platelet poor plasma (PPP) obtained from human wholeblood, anticoagulated with Na-Citrate, is incubated with various concentrations of the test compound together with either 25, 75, 250, or 750 μg/mL kaolin in assay buffer for 20 min at 37° C. such that for each kaolin dose used a concentration response is obtained for the test compound.

[2] = target: T2, Human PKK (Homo sapiens, UniProt P03952); test: Inhibition of PKK using an endpoint assay (human PKK); format: biochemical; settings: fluorogenic substrate H-Pro-Phe-Arg-AMC, 1 h room temperature, method names human or rat PKK, table does not say which
T2 construct: purchased Enzyme Research Laboratories
T2 sequence (P03952 20-390 limits assumed): as above
T2 sequence (P03952 391-638 limits assumed): as the sequence (P03952 391-638 limits assumed) above
In short: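 Endpoint fluorescence (ex 355 nm, em 460 nm) after stopping with 1 μM final PPACK II. Buffer: Tris 100 mM pH 7.8, NaCl 150 mM, BSA 0.1%, Tween20 0.05%, with 1% DMSO present; enzyme is human plasma kallikrein.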

Compound | IC50 [1] | IC50 [2]
Cn1cnc2c1CC[C@H]2NC(=O)c1cn(Cc2ccc(N3CC4(CC4)C3)nc2Cl)cn1 [Example 21, 1-[(6-{5-Azaspiro[2.3]hexan-5-yl}-2-chloropyridin-3-yl)methyl]-N-[(4R)-1-methyl-1H,4H,5H,6H-cyclopenta[d]imidazol-4-yl]-1H-imidazole-4-carboxamide] | 325 nM | 0.9 nM
Cn1cnc2c1CC[C@H]2NC(=O)c1cn(Cc2ccc(N3CC4C(C3)C4(F)F)nc2Br)cn1 (stereo partly drawn) [Example 28, 1-[(2-Bromo-6-{6,6-difluoro-3-azabicyclo-[3.1.0]hexan-3-yl}pyridin-3-yl)methyl]-N-[(4R)-1-methyl-1H,4H,5H,6H-cyclopenta[d]imidazol-4-yl]-1H-imidazole-4-carboxamide] | 184 nM | 0.6 nM
Cn1cnc2c1CC[C@H]2NC(=O)c1cn(Cc2ccc(N3CC4(CC4)C3)nc2F)nn1 [Example 10, 1-[(6-{5-Azaspiro[2.3]hexan-5-yl}-2-fluoropyridin-3-yl)methyl]-N-[(4R)-1-methyl-1H,4H,5H,6H-cyclo-penta[d]imidazol-4-yl]-1H-1,2,3-triazole-4-carboxamide] | 789 nM | 2.5 nM
Cc1nc(N2CC3C(C2)C3(F)F)ccc1Cn1ccc(C(=O)N[C@@H]2CCc3c2ncn3C)c1 (stereo partly drawn) [Example 141, 1-[(6-{6,6-Difluoro-3-azabicyclo[3.1.0]hexan-3-yl}-2-methylpyridin-3-yl)methyl]-N-[(4R)-1-methyl-1H,4H,5H,6H-cyclopenta[d]imidazol-4-yl]-1H-pyrrole-3-carboxamide] | 621 nM | 2 nM
COCc1nc(N2CC3C(C2)C3(F)F)ccc1Cn1cc(C(=O)N[C@@H]2CCc3c2ncn3C)nn1 (stereo partly drawn) [Example 55, 1-[(6-{6,6-Difluoro-3-azabicyclo[3.1.0]hexan-3-yl}-2-(methoxymethyl)pyridin-3-yl)methyl]-N-[(4R)-1-methyl-1H,4H,5H,6H-cyclopenta[d]-imidazol-4-yl]-1H-1,2,3-triazole-4-carboxamide] | 250 nM | 2.3 nM
Cn1cnc2c1CC[C@H]2NC(=O)c1cc(Cc2ccc(N3CC4C(C3)C4(F)F)nc2CO)no1 (stereo partly drawn) [Example 147, 3-[(6-{6,6-Difluoro-3-azabicyclo[3.1.0]hexan-3-yl}-2-(hydroxymethyl)pyridin-3-yl)methyl]-N-[(4R)-1-methyl-1H,4H,5H,6H-cyclopenta-[d]imidazol-4-yl]-1,2-oxazole-5-carboxamide] | 149 nM | 1.4 nM
Cn1cnc2c1CC[C@H]2NC(=O)c1cn(Cc2ccc(N3CC4C(C3)C4(F)F)nc2Cl)cn1 (stereo partly drawn) [Example 57, 1-[(2-Chloro-6-{6,6-difluoro-3-azabicyclo[3.1.0]-hexan-3-yl}pyridin-3-yl)methyl]-N-[(4R)-1-methyl-1H,4H,5H,6H-cyclopenta[d]imidazol-4-yl]-1H-imidazole-4-carboxamide] | 166 nM | 0.6 nM
COCc1nc(N2CC3CC3C2)ccc1Cc1cc(C(=O)N[C@@H]2CCc3c2ncn3C)[nH]n1 (stereo partly drawn) [Example 219, 3-[(6-{3-Azabicyclo[3.1.0]hexan-3-yl}-2-(methoxymethyl)pyridin-3-yl)methyl]-N-[(4R)-1-methyl-1H,4H,5H,6H-cyclopenta[d]imidazol-4-yl]-1H-pyrazole-5-carboxamide] | 776 nM | 3.6 nM
Cc1c(Cn2cc(C(=O)N[C@@H]3CCc4c3ncn4C)cn2)cnc(N2CC3C(C2)C3(F)F)c1C#N (stereo partly drawn) [Example 103, 1-[(5-Cyano-6-{6,6-difluoro-3-azabicyclo[3.1.0]-hexan-3-yl}-4-methylpyridin-3-yl)methyl]-N-[(4R)-1-methyl-1H,4H,5H,6H-cyclopenta-[d]imidazol-4-yl]-1H-pyrazole-4-carboxamide] | 531 nM | 0.7 nM
Cc1c(Cn2cnc(C(=O)N[C@@H]3CCc4c3ncn4C)c2)cnc(N2CC3C(C2)C3(F)F)c1C#N (stereo partly drawn) [Example 105, 1-[(5-Cyano-6-{6,6-difluoro-3-azabicyclo[3.1.0]-hexan-3-yl}-4-methylpyridin-3-yl)methyl]-N-[(4R)-1-methyl-1H,4H,5H,6H-cyclopenta-[d]imidazol-4-yl]-1H-imidazole-4-carboxamide] | 117 nM | 0.5 nM

Now from value to compound:

IC50 [1] | IC50 [2] | Compound
2100 nM | 4.6 nM | CCc1nc(N2CC3CC3C2)ccc1Cc1ncc(C(=O)N[C@@H]2CCc3c2ncn3C)o1 (stereo partly drawn) [Example 158, 2-[(6-{3-Azabicyclo[3.1.0]hexan-3-yl}-2-ethylpyridin-3-yl)methyl]-N-[(4R)-1-methyl-1H,4H,5H,6H-cyclopenta[d]imidazol-4-yl]-1,3-oxazole-5-carboxamide]
259 nM | 2.2 nM | Cn1cnc2c1CC[C@H]2NC(=O)c1cnn(Cc2ccc(N3CC4CC4C3)c(C#N)n2)c1 (stereo partly drawn) [Example 35, 1-[(5-{3-Azabicyclo[3.1.0]hexan-3-yl}-6-cyanopyridin-2-yl)methyl]-N-[(4R)-1-methyl-1H,4H,5H,6H-cyclopenta[d]imidazol-4-yl]-1H-pyrazole-4-carboxamide]
439 nM | 2.1 nM | Cn1cnc2c1CC[C@H]2NC(=O)c1cn(Cc2ccc(N3CC4CC4C3)nc2CO)nn1 (stereo partly drawn) [Example 91, 1-[(6-{3-Azabicyclo[3.1.0]hexan-3-yl}-2-(hydroxymethyl)-pyridin-3-yl)methyl]-N-[(4R)-1-methyl-1H,4H,5H,6H-cyclo-penta[d]imidazol-4-yl]-1H-1,2,3-triazole-4-carboxamide]
543 nM | 1.2 nM | Cn1cnc2c1CC[C@H]2NC(=O)c1cnn(Cc2ccc(N3CC4CC4C3)nc2Br)c1 (stereo partly drawn) [Example 40, 1-[(6-{3-Azabicyclo[3.1.0]hexan-3-yl}-2-bromopyridin-3-yl)methyl]-N-[(4R)-1-methyl-1H,4H,5H,6H-cyclopenta[d]imidazol-4-yl]-1H-pyrazole-4-carboxamide]
380 nM | 0.7 nM | Cn1cnc2c1CC[C@H]2NC(=O)c1cn(Cc2ccc(N3CC4CC4C3)nc2Br)cn1 (stereo partly drawn) [Example 39, 1-[(6-{3-Azabicyclo[3.1.0]hexan-3-yl}-2-bromopyridin-3-yl)methyl]-N-[(4R)-1-methyl-1H,4H,5H,6H-cyclopenta[d]imidazol-4-yl]-1H-imidazole-4-carboxamide]
548 nM | 1.1 nM | Cn1cnc2c1CC[C@H]2NC(=O)c1cn(Cc2ccc(N3CC4CC4C3)nc2Cl)nn1 (stereo partly drawn) [Example 32, 1-[(6-{3-Azabicyclo[3.1.0]hexan-3-yl}-2-chloropyridin-3-yl)methyl]-N-[(4R)-1-methyl-1H,4H,5H,6H-cyclopenta-[d]imidazol-4-yl]-1H-1,2,3-triazole-4-carboxamide]
342 nM | 0.8 nM | CCc1nc(N2CC3CC3C2)ccc1Cc1cc(C(=O)N[C@@H]2CCc3c2ncn3C)[nH]n1 (stereo partly drawn) [Example 165, 3-[(6-{3-Azabicyclo[3.1.0]hexan-3-yl}-2-ethylpyridin-3-yl)methyl]-N-[(4R)-1-methyl-1H,4H,5H,6H-cyclopenta[d]imidazol-4-yl]-1H-pyrazole-5-carboxamide]
139 nM | 0.9 nM | CC(O)c1nc(N2CC3CC3C2)ccc1Cn1cc(C(=O)N[C@@H]2CCc3c2ncn3C)cn1 (stereo partly drawn) [Example 88, 1-[(6-{3-Azabicyclo[3.1.0]hexan-3-yl}-2-(1-hydroxyethyl)-pyridin-3-yl)methyl]-N-[(4R)-1-methyl-1H,4H,5H,6H-cyclopenta[d]imidazol-4-yl]-1H-pyrazole-4-carboxamide]
